{"source": "patent US20180037568A1", "about": "“MODULATORS OF METHYL MODIFYING ENZYMES, COMPOSITIONS AND USES THEREOF” (Constellation Pharmaceuticals, Inc., priority 2015, published 2018)", "key": {"[1]": {"assay": "In vitro metabolism, human liver microsomes", "assay_type": "in vitro ADME", "details": "10 μM compound, 0.7 mg protein/mL, read-out: intrinsic clearance", "procedure": "(§1) The in vitro metabolism of compound 21 was evaluated by disappearance of compound in mouse, rat, dog and human liver microsomes at 10 μM compound concentration.\n(§2) Data is expressed in μL/min/mg protein."}, "[2]": {"assay": "Mean plasma and tumor concentration, 7-day study in SCID mice", "assay_type": "in vivo", "details": "mouse, po, female SCID mice"}, "EZH2": {"target": "EZH2 (Homo sapiens, UniProt Q15910)", "sequence (Q15910 whole entry)": "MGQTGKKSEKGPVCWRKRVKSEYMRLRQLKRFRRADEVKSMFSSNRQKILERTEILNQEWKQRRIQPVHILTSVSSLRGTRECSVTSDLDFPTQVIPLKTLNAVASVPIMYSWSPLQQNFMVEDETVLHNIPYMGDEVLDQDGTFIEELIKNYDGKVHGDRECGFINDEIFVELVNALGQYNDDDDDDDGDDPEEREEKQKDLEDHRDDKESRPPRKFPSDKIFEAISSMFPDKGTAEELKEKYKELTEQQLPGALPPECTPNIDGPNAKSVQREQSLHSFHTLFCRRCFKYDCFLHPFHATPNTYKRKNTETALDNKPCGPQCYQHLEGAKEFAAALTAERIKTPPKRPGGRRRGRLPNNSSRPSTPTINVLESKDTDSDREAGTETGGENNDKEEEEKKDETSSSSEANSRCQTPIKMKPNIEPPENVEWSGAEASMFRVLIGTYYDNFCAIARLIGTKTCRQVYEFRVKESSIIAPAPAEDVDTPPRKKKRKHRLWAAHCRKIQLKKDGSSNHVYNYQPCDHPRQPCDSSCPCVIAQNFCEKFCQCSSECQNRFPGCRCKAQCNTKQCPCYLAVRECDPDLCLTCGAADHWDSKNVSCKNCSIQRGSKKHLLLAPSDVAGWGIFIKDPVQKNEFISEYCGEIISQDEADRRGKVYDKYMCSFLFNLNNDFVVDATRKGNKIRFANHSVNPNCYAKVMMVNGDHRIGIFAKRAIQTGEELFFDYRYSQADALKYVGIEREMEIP", "sequence (O75530 whole entry partner)": "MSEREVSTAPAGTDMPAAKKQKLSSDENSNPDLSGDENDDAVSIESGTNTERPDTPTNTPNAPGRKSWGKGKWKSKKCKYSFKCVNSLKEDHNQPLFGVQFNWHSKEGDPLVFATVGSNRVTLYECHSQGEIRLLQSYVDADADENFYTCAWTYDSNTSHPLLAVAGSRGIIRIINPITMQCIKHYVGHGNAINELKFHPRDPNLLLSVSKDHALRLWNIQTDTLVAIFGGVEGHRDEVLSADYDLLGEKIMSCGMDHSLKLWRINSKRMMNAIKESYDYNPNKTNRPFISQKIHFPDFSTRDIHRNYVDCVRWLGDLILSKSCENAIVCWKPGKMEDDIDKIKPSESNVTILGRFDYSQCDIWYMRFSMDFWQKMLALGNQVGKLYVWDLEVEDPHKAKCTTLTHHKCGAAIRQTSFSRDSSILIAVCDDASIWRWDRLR", "sequence (Q15022 whole entry partner)": "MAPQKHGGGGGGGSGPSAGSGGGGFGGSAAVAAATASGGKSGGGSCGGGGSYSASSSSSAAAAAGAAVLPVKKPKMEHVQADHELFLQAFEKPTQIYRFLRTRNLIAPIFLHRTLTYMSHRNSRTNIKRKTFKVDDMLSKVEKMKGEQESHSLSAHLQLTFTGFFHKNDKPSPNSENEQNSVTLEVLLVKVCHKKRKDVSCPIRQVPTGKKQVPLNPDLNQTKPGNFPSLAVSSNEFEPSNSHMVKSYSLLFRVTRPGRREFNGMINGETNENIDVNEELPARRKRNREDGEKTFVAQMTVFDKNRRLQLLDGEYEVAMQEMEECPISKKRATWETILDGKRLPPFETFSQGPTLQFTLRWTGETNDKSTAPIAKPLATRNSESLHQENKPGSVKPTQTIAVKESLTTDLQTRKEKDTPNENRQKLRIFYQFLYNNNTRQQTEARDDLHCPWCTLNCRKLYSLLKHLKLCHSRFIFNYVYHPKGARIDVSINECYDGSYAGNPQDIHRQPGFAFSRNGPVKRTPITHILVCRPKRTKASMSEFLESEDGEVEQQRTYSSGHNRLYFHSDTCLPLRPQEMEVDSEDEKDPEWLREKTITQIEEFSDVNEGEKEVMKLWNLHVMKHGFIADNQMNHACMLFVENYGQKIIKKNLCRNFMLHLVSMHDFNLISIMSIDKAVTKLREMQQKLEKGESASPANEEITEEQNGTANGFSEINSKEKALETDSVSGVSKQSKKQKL", "assay": "EZH2 nuc BSA Brij 1.5 (IC50): rPRC2, biotinylated oligonucleosome substrate, 3H SAM FlashPlate", "assay_type": "biochemical", "details": "read-out: EZH2 nuc BSA Brij 1.5 (IC50); 2 nM EZH2, 0.2 μM biotinylated oligonucleosomes, 0.2 μM 3H SAM, 3.6 μM H3K27me3 peptide", "summary_of_the_method": "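rPRC2 (2 nM EZH2) with 0.2 μM biotinylated oligonucleosomes, 0.2 μM 3H-SAM and 3.6 μM H3K27me3 peptide in pH 8.5 Tris with Brij-35 and BSA. Compounds, 80–0.16 μM in ten 2-fold steps, pre-incubated 20 min before a 60 min reaction. SAH/EDTA quench, streptavidin FlashPlate capture, scintillation count; IC50 from a 4-parameter fit.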"}, "[3]": {"assay": "Plasma-tissue distribution and glucuronide formation in BALB/C mice", "assay_type": "in vivo", "details": "mouse, male BALB/C mice, oral gavage 100 mg/kg, 1 hour after dosing", "procedure": "1 h after dosing a group of mice (3 mice/group) via oral gavage at 100 mg/kg of compound 21, blood is collected from the submandibular or saphenous vein (˜30 μL) and tissue is collected from the biceps femoris (both sides). After tissue preparation and homogenization, plasma and tissue samples are assayed for parent drug using LC/MS/MS methodologies with internal standard. The glucuronide metabolites (parent mass +176) are also monitored via LC/MS/MS and compared to the internal standard for quantitation."}, "PRC2 containing wt EZH2": {"target": "T1, PRC2 containing wt EZH2 (Homo sapiens, UniProt Q15910)", "T1 construct": "made in house", "T1 sequence (Q15910 whole entry)": "as the sequence (Q15910 whole entry) above", "T1 sequence (O75530 whole entry partner)": "as the sequence (O75530 whole entry partner) above", "T1 sequence (Q15022 whole entry partner)": "as the sequence (Q15022 whole entry partner) above", "T1 sequence (Q09028 whole entry partner)": "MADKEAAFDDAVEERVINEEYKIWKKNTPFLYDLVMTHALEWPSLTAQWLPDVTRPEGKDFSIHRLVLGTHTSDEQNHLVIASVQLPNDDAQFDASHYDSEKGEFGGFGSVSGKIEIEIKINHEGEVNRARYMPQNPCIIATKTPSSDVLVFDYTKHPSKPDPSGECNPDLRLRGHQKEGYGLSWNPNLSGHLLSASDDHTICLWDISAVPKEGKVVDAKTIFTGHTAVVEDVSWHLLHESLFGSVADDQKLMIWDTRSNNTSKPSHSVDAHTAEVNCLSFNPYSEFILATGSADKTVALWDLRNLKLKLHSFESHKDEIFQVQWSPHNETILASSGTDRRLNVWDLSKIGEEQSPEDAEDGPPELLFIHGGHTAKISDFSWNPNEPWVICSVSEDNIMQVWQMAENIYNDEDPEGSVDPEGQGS", "T1 sequence (Q6ZN18 whole entry partner)": "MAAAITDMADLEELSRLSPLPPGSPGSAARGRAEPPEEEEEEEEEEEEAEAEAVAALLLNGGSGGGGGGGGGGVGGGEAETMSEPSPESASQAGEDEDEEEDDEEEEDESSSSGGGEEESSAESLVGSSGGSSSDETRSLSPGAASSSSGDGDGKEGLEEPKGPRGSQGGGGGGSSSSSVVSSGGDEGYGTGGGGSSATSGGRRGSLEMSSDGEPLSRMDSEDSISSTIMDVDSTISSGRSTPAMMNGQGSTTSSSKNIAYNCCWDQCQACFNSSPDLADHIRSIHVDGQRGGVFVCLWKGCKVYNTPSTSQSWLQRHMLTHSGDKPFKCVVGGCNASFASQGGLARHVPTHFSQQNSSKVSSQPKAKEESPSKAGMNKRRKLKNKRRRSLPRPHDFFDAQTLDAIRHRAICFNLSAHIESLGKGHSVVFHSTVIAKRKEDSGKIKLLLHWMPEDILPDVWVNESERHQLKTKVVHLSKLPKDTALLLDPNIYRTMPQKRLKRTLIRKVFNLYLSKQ", "assay": "EZH2 pep BSA Brij 4.0 LowE (IC50): 3H-SAM incorporation into biotinylated H3 peptide", "assay_type": "biochemical", "details": "read-out: EZH2 pep BSA Brij 4.0 LowE (IC50); 20 pM PRC2 wt EZH2, 0.9 μM 3H-SAM, biotinylated H3 peptide substrate, 2 μM H3K27me3 activating peptide", "summary_of_the_method": "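PRC2 (wt EZH2, 20 pM) pre-incubated 120 min with compound, 0.9 μM 3H-SAM and 2 μM H3K27me3 activating peptide in pH 8.5 Tris/DTT/Brij-35/0.1% BSA, 0.8% DMSO. Biotinylated H3K27me1 peptide added (2 μM stock), 5 h at room temperature, EDTA/SAH quench, streptavidin Flashplate capture. IC50 from four-parameter fit versus full-activity and no-enzyme controls.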"}, "[4]": {"assay": "In vitro metabolism, rat liver microsomes", "assay_type": "in vitro ADME", "details": "10 μM compound, 0.7 mg protein/mL, read-out: intrinsic clearance", "procedure": "as §1, §2"}}, "note": "Read-outs that look alike come from different tables or passages of the source."}
{"smiles": "COc1cc(C)[nH]c(=O)c1CNC(=O)c1c(C)n(C(C)C2CCN(C)C(C(F)(F)F)C2)c2ccccc12", "note": "(single isomer, unassigned) [Compound 21, N-((4-methoxy-6-methyl-2-oxo-1,2-dihydropyridin-3-yl)methyl)-2-methyl-1-(1-(1-methyl-2-(trifluoromethyl)piperidin-4-yl)ethyl)-1H-indole-3-carboxamide]", "values": [{"measurement": "microsomal CLint at 10 μM", "setting": "[1]", "value": 39, "unit": "µL/min/mg"}, {"measurement": "concentration at 7 day", "setting": "[2]; plasma, 100 mg/kg P.O. BID, read-out: Mean Plasma Conc", "value": 280, "unit": "ng/mL"}, {"measurement": "concentration at 7 day", "setting": "[2]; plasma, 200 mg/kg P.O. BID, read-out: Mean Plasma Conc", "value": 1600, "unit": "ng/mL"}, {"measurement": "concentration at 7 day", "setting": "[2]; tumor, 100 mg/kg P.O. BID, read-out: Mean Tumor Conc", "value": 451, "unit": "ng/g"}, {"measurement": "concentration at 7 day", "setting": "[2]; tumor, 200 mg/kg P.O. BID, read-out: Mean Tumor Conc", "value": 693, "unit": "ng/g"}, {"measurement": "IC50", "setting": "EZH2", "value": "< 100", "unit": "nM"}, {"measurement": "concentration at 1 h", "setting": "[3]; muscle (biceps femoris), biceps femoris, read-out: Conc. in Muscle", "value": 7240, "unit": "ng/g"}, {"measurement": "Kp at 1 h", "setting": "[3]; muscle/plasma, read-out: Ratio Muscle/Plasma", "value": 0.86}, {"measurement": "concentration at 1 h", "setting": "[3]; plasma, read-out: Conc. in Plasma", "value": 8370, "unit": "ng/mL"}, {"measurement": "IC50", "setting": "PRC2 containing wt EZH2", "value": "< 100", "unit": "nM"}, {"measurement": "microsomal CLint at 10 μM", "setting": "[4]", "value": 35, "unit": "µL/min/mg"}]}
